From PubChem BioAssay (NCI)
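Method: 48-hour compound exposure of cells in 96-well plates, five concentrations, linear interpolation of endpoints. Definition used: TGI = concentration required for complete inhibition of growth.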

Assays:
Test in all cases: DTP human tumour cell line panel, 48 h
KM12 colon = system: KM12 colon
DU-145 prostate = system: DU-145 prostate
SK-MEL-28 melanoma = system: SK-MEL-28 melanoma
SR leukemia = system: SR leukemia
IGROV1 ovarian = system: IGROV1 ovarian
HCT-116 colon = system: HCT-116 colon
SNB-75 CNS = system: SNB-75 CNS
NCI-H522 lung = system: NCI-H522 lung
HT29 colon = system: HT29 colon
SK-MEL-5 melanoma = system: SK-MEL-5 melanoma
SW-620 colon = system: SW-620 colon
LOX IMVI melanoma = system: LOX IMVI melanoma
SNB-19 CNS = system: SNB-19 CNS
NCI-H226 lung = system: NCI-H226 lung
MDA-MB-435 = system: MDA-MB-435
NCI-H23 lung = system: NCI-H23 lung
CAKI-1 renal = system: CAKI-1 renal
A498 renal = system: A498 renal
HL-60(TB) leukemia = system: HL-60(TB) leukemia
EKVX NSCLC = system: EKVX NSCLC
HS 578T breast = system: HS 578T breast
A549 NSCLC = system: A549 NSCLC
ACHN renal = system: ACHN renal
RPMI-8226 leukemia = system: RPMI-8226 leukemia
HOP-62 NSCLC = system: HOP-62 NSCLC
K-562 leukemia = system: K-562 leukemia
SK-MEL-2 melanoma = system: SK-MEL-2 melanoma
BT-549 breast = system: BT-549 breast
HCT-15 colon = system: HCT-15 colon
RXF 393 renal = system: RXF 393 renal
COLO 205 colon = system: COLO 205 colon
SF-295 CNS = system: SF-295 CNS
UACC-62 melanoma = system: UACC-62 melanoma
MOLT-4 leukemia = system: MOLT-4 leukemia
SK-OV-3 ovarian = system: SK-OV-3 ovarian
MDA-N = system: MDA-N
OVCAR-8 ovarian = system: OVCAR-8 ovarian
MALME-3M melanoma = system: MALME-3M melanoma
MDA-MB-231 breast = system: MDA-MB-231 breast
MCF7 breast = system: MCF7 breast
SF-268 CNS = system: SF-268 CNS
NCI-H460 lung = system: NCI-H460 lung
NCI/ADR-RES ovarian = system: NCI/ADR-RES ovarian
OVCAR-5 ovarian = system: OVCAR-5 ovarian
786-0 renal = system: 786-0 renal
M14 melanoma = system: M14 melanoma
UO-31 renal = system: UO-31 renal
CCRF-CEM leukemia = system: CCRF-CEM leukemia
OVCAR-4 ovarian = system: OVCAR-4 ovarian
SN12C renal = system: SN12C renal
U251 CNS = system: U251 CNS
OVCAR-3 ovarian = system: OVCAR-3 ovarian
HCC-2998 colon = system: HCC-2998 colon
T-47D breast = system: T-47D breast
PC-3 prostate = system: PC-3 prostate
HOP-92 NSCLC = system: HOP-92 NSCLC
SF-539 CNS = system: SF-539 CNS
UACC-257 melanoma = system: UACC-257 melanoma
TK-10 renal = system: TK-10 renal

Measured: TGI

Cn1c2ccccc2n2c3ncccc3c(=NCCCC(=O)O)c(C#N)c12
not listed: HOP-92 NSCLC | SF-539 CNS | UACC-257 melanoma | TK-10 renal
> 100 µM: all other assays above

O=[N+]([O-])c1ccc(-c2cc(O)c3nc4ccccc4n3c2)cc1
> 94 µM: HOP-62 NSCLC
> 31.6 µM: MDA-MB-435 | UACC-62 melanoma
> 76.2 µM: SNB-75 CNS
> 100 µM: all other assays above

Cc1ccc(S(=O)(=O)N2CCN(S(=O)(=O)c3ccc(C)cc3)CCN(S(=O)(=O)c3ccc(C)cc3)Cc3cc(C#N)c(C#N)cc3CN(S(=O)(=O)c3ccc(C)cc3)CC2)cc1
89.3 µM: HOP-92 NSCLC
89.1 µM: M14 melanoma
58.2 µM: A498 renal
not listed: SK-MEL-2 melanoma
> 100 µM: all other assays above

CN(C)CCCC1c2ccccc2Oc2ccc(C(F)(F)F)cc21 (stereo not drawn)
31.9 µM: OVCAR-8 ovarian
15.7 µM: SK-MEL-28 melanoma
17.4 µM: RXF 393 renal
31.6 µM: LOX IMVI melanoma | SF-295 CNS
31.5 µM: HCT-15 colon | CCRF-CEM leukemia
33.7 µM: SW-620 colon
15.8 µM: MALME-3M melanoma
29.8 µM: A549 NSCLC
19.1 µM: MDA-MB-435
4.97 µM: HCC-2998 colon
28.1 µM: HL-60(TB) leukemia
17.7 µM: COLO 205 colon
22.7 µM: MOLT-4 leukemia
26.6 µM: MCF7 breast
30.7 µM: SK-OV-3 ovarian
15.2 µM: MDA-N
26.7 µM: 786-0 renal
25.6 µM: HCT-116 colon
36.6 µM: NCI-H23 lung
30.4 µM: ACHN renal
23.9 µM: U251 CNS
29.2 µM: OVCAR-5 ovarian | OVCAR-3 ovarian
28.2 µM: BT-549 breast | SN12C renal
30.5 µM: T-47D breast
29.4 µM: NCI-H522 lung
14.2 µM: M14 melanoma
24.5 µM: SR leukemia
23.1 µM: NCI-H226 lung
26 µM: MDA-MB-231 breast
18.3 µM: K-562 leukemia
28.3 µM: NCI/ADR-RES ovarian | OVCAR-4 ovarian
21 µM: SK-MEL-5 melanoma
31 µM: HOP-62 NSCLC
28.4 µM: KM12 colon
27.1 µM: PC-3 prostate
6.49 µM: UO-31 renal
18.9 µM: HT29 colon
27.7 µM: SNB-75 CNS
29.5 µM: SF-539 CNS
31.3 µM: SNB-19 CNS | EKVX NSCLC
29.3 µM: TK-10 renal
25.9 µM: A498 renal
27.6 µM: IGROV1 ovarian
25.2 µM: HOP-92 NSCLC
25.3 µM: RPMI-8226 leukemia
25.8 µM: CAKI-1 renal
28.5 µM: SK-MEL-2 melanoma | SF-268 CNS
23.4 µM: UACC-62 melanoma
31.8 µM: HS 578T breast | NCI-H460 lung
31.1 µM: DU-145 prostate
26.5 µM: UACC-257 melanoma

COc1ccc(OC)c(CSc2ccc(OC)c(OC)c2)c1
98.3 µM: HOP-92 NSCLC
99.3 µM: A498 renal
> 30.5 µM: T-47D breast
> 100 µM: all other assays above

CCCCNc1nc2ccccc2c2c1ncn2CC(C)C
> 100 µM: all assays above

OCc1cc2c(ccc3sc4ccc5sc6ccc7ncccc7c6c5c4c32)s1
39.7 µM: HT29 colon
23 µM: HCT-116 colon
27.7 µM: SF-295 CNS
32.4 µM: SF-539 CNS
43.9 µM: PC-3 prostate
28.6 µM: HOP-62 NSCLC
67.1 µM: HL-60(TB) leukemia
31.9 µM: HS 578T breast
26.8 µM: SN12C renal
27.6 µM: NCI-H522 lung
20.4 µM: KM12 colon
89.2 µM: OVCAR-4 ovarian
39.9 µM: SK-OV-3 ovarian
26.3 µM: NCI-H460 lung
15.1 µM: 786-0 renal
28.7 µM: SNB-19 CNS
42.2 µM: MCF7 breast
26.4 µM: IGROV1 ovarian
23.9 µM: MDA-N
22.8 µM: SNB-75 CNS
33 µM: OVCAR-5 ovarian
29.7 µM: EKVX NSCLC
36.6 µM: CAKI-1 renal
11.8 µM: SK-MEL-5 melanoma
7.25 µM: UO-31 renal
48.4 µM: MOLT-4 leukemia
21.3 µM: COLO 205 colon
24.9 µM: T-47D breast
38.6 µM: BT-549 breast | UACC-62 melanoma
82.5 µM: NCI/ADR-RES ovarian
62.1 µM: OVCAR-8 ovarian
28.9 µM: RXF 393 renal
96.2 µM: RPMI-8226 leukemia
31.1 µM: A549 NSCLC
26.6 µM: LOX IMVI melanoma
33.6 µM: DU-145 prostate | HCT-15 colon
31.3 µM: SK-MEL-2 melanoma
37.2 µM: UACC-257 melanoma
18.2 µM: MDA-MB-231 breast
not listed: NCI-H23 lung | MALME-3M melanoma | SF-268 CNS | M14 melanoma | HCC-2998 colon
> 100 µM: all other assays above
